The conditions of series [1]: literature, cited from earlier work.
The subject of series [2] is Npc1nmf164 mice. Nature of the series: Efficacy in Npc1nmf164 mouse model of Niemann-Pick type C disease. It is filed as in vivo.
Excerpt: Animals—Npc1^nmf164 is a BALB/c strain carry a D1005G (A to G at cDNA bp 3163) mutation in the Npc1 gene 32. […] Homozygous mutants (Npc1^nmf164) along with wild-type littermates (Npc1^+/+), were generated in house by crossing heterozygous mutant (Npc1^+/nmf164) males and females and genotyped as previously described^10. Wild type Balb/c mice were procured from Envigo (Indianapolis, Ind., USA).
Drug injection and organ harvest—The Triple combination formulation (TCF) is a mixture of vorinostat (50 mg/kg), HPBCD (2000 mg/Kg)), PEG 400 (45%) and DMSO (5%). Vorinostat (50 mg/Kg) was made in 5% DMSO and 45% PEG. HPBCD was a 20% (w/v) solution and given dose of 2000 mg/Kg. […] To enable comparative studies with prior regiments, all mice were given two doses of HPBCD at P7 and P15. From P21 onwards, mice received either HPBCD alone or TCF, as indicated. Vo was also initiated at P21. Injections were administered weekly through the intraperitoneal (i.p) route (and the injection volume used was 10 ml/Kg body weight across all treatment groups). For lung histopathology, Npc1^nmf164 mice were analyzed at 100-109 days of age. Long-term safety was assessed for 8-10 months either in Npc^1+/nmf164 or commercially purchased wild type Balb/c mice.
Series [3] concerns Npc1nmf164 mice. Kind of series: Foamy macrophages in lungs of Npc1nmf164 mice (H&E). As to conditions: Npc1nmf164 mice at 100 days of age, weekly i.p. It is filed as in vivo, mouse. As to the method:
H&E stained micrographs showing foamy macrophages (indicated by black arrows) at 100 days of age in the lung of Npc1^+/nmf164 (healthy control) and Npc1^nmf164 (^Npc) mutant mice treated as indicated. Foamy macrophages were abundant in untreated Npc mice. […] Images were taken with 40× objective lens and are representative of 4 mice in each group. Number of mice in each group=4. For quantitation, 10-15 random fields were analyzed per lung section. Untr, Untreated.*p=0.02, TCF vs HPBCD, two-tailed Mann-Whitney test.
Drug injection and organ harvest—The Triple combination formulation (TCF) is a mixture of vorinostat (50 mg/kg), HPBCD (2000 mg/Kg)), PEG 400 (45%) and DMSO (5%). Vorinostat (50 mg/Kg) was made in 5% DMSO and 45% PEG. HPBCD was a 20% (w/v) solution and given dose of 2000 mg/Kg. Detailed methodology on preparing drug solutions have been descried earlier^10. To enable comparative studies with prior regiments, all mice were given two doses of HPBCD at P7 and P15. From P21 onwards, mice received either HPBCD alone or TCF, as indicated. Vo was also initiated at P21. […] For lung histopathology, Npc1^nmf164 mice were analyzed at 100-109 days of age. Long-term safety was assessed for 8-10 months either in Npc^1+/nmf164 or commercially purchased wild type Balb/c mice. […]

Series [4] in a line: Quantification of Vo in lungs by mass spectrometry. As to conditions: Npc1+/nmf164 mice. It is filed as in vivo, mouse. Here is the method:
Npc1^+/nmf164 injected i.p. with Vo or TCF. At indicated times, animals sacrificed, perfused with PBS and Vo concentration in lungs were determined by mass spectrometry. n=5. h, hour. *p=0.02, TCF vs Vo 0.5 h, and **p=0.014 TCF vs Vo, 1 h, two tailed Student's t test.
Quantification of Vo in lungs—Npc1^+/nmf164 mice (age 6-7 weeks) were given intraperitoneal injections of either Vo (50 mg/Kg in 45% PEG and 5% DMSO) or TCF (Vo 50 mg/Kg+HPBCD, 2000 mg/Kg+PEG, 45%+DMSO, 5%). At 30 min and 1 h post injection, mice were asphyxiated with CO2, blood was drawn by cardiac puncture and organs were perfused with 20 ml ice-cold PBS through the ventricle. Harvested lungs were cut into small pieces (4-6 mm2) and flash frozen in liquid nitrogen. The quantification of vorinostat was done by Metabolite Profiling Facility, Bindley Bioscience Center, Purdue University, Ind., USA. The detailed methods are as described earlier^10. Briefly, the tissue was homogenized using a Precelly bead homogenizer system utilizing ceramic CK 14 beads. 2 ng of deuterated internal standard (d5-Vorinostat, Toronto Research Chemicals, Ontario, Canada) was added to lung homogenate prior to liquid extraction with acetonitrile. Prior to analysis, samples were reconstituted in 100 μL of 50% water/50% acetonitrile. An Agilent 1200 Rapid Resolution liquid chromatography (HPLC) system coupled to an Agilent 6460 series triple quadrupole mass spectrometer (MS/MS) was used to analyze vorinostat. The data were obtained in positive electrospray ionization (ESI) mode and quantitated by monitoring the following transitions: for Vorinostat, 265→232 with a collision energy of 5 V and for d5-Vorinostat, 270→237 with collision energy of 5 V.

Series [5] relates to inflammatory pain model. As to conditions: intrathecal; cited from earlier work.
In series [6] the test system is SNI. Particulars: intrathecal injection; cited from earlier work.
Series [7] relates to animal pain models. Particulars: systemically applied; cited from earlier work.

“Also recorded” adds a separate entry of the source.

Consider `CC(O)COC[C@H]1O[C@@H]2O[C@H]3[C@H](O)[C@@H](O)[C@@H](O[C@H]4[C@H](O)[C@@H](O)[C@@H](O[C@H]5[C@H](O)[C@@H](O)[C@@H](O[C@H]6[C@H](O)[C@@H](O)[C@@H](O[C@H]7[C@H](O)[C@@H](O)[C@@H](O[C@H]8[C@H](O)[C@@H](O)[C@@H](O[C@H]1[C@H](O)[C@H]2O)O[C@@H]8COCC(C)O)O[C@@H]7COCC(C)O)O[C@@H]6COCC(C)O)O[C@@H]5COCC(C)O)O[C@@H]4COCC(C)O)O[C@@H]3COCC(C)O` (stereo partly drawn) [HPBCD, 2-hydroxypropyl-β-cyclodextrin], for which, in series [1], the “blood brain barrier crossing” value was “does not cross the blood brain barrier”. Also, the distribution to lung result in series [1] (systemic delivery) is recorded as “excluded from lung”. The “benefit on Npc1nmf164 mouse survival” value in series [2] (2×HPBCD compared to 1×HPBCD alone) was “no additional benefit”. For the same molecule, in series [3], the “accumulation of foamy macrophages in the lungs” value is listed as “abundant macrophage accumulation; also recorded: no effect”.
With `O=C(CCCCCCC(=O)Nc1ccccc1)NO` [Vo, vorinostat], the “reduction of Vo lung concentration from 30 min to 60 min” value in series [4] (i.p.) was 65-70%. The same molecule showed a concentration at 30 min in series [4] (mouse, lung, ip, 50 mg/Kg, 30 min post i.p. injection) of 3200 ng/g. Further, in series [4] (mouse, lung, ip, 50 mg/Kg, 60 min post i.p. injection), the concentration at 60 min was 1000 ng/g. Also, the “benefit on Npc1nmf164 mouse survival” value in series [2] (Vo in PEG) is listed as “no benefit”. Also, the “accumulation of foamy macrophages in the lungs” value in series [3] is recorded as “abundant macrophage accumulation; also recorded: no effect”. In addition, in series [5], the “histone acetylation in the spinal cord dorsal horn” value is “enhanced histone acetylation” and the hyperalgesia entry is on record as “reduced hyperalgesia”.
In the case of `O=C(O)[C@H]1O[C@@H](Oc2cc3oc(-c4ccccc4)cc(=O)c3c(O)c2O)[C@H](O)[C@@H](O)[C@@H]1O` [baicalin], in series [6], the histone acetylation result was “reduces histone acetylation” and the pain behavior result is listed as “reverses pain behavior”.
On to `COc1cc(/C=C/C(=O)CC(=O)/C=C/c2ccc(O)c(OC)c2)ccc1O` [curcumin], for which the analgesia result in series [7] is on record as “modest analgesia”.
Take `O=C(/C=C/c1ccc(CN(CCO)CCc2c[nH]c3ccccc23)cc1)NO` [dacinostat]: in series [5], the “histone acetylation in the spinal cord dorsal horn” value is “enhanced histone acetylation” and the hyperalgesia result is on record as “reduced hyperalgesia”.
With `CC(/C=C/C(=O)NO)=C\[C@@H](C)C(=O)c1ccc(N(C)C)cc1` [trichostatin A], in series [5], the “histone acetylation in the spinal cord dorsal horn” value is listed as “enhanced histone acetylation” and the hyperalgesia entry was “reduced hyperalgesia”.
For the molecule `CCCC(CCC)C(=O)O` [valproic acid], the analgesia entry in series [7] is recorded as “modest analgesia”.

Source of the values: US11219608B2, “Triple combination formulation for treatment of chronic pain” (Northwestern University, priority 2017, dated 2022).
